Test results from patent publication US20240366594A1, “Small Molecule Inhibitors of Formation of Neutrophil-Derived Extracellular Traps (NETosis) and Uses Thereof” (The Brigham and Women's Hospital, Inc., priority 2021, published 2024).

System: mice challenged with LPS
Experiment: In vivo LPS-induced septic shock
Design: species or system mouse
Conditions: for platelet counts in the blood: 2 h post LPS challenge, compared with LPS alone, FIGS. 4C, 8D; for pro-inflammatory cytokine production (serum, ELISA): FIGS. 4E-4G; for neutrophils levels (blood and peritoneal lavage): FIGS. 8A-8C; for release of NETs by neutrophils in the peritoneal lavage (CitH3-positive neutrophils): cytofluorimetry, FIG. 4D; for body temperature 2 h post challenge: ricolinostat 30 mg/kg/dose or GSK484 25 mg/kg/dose i.p., FIG. 4B
Protocol: FIGS. 4A-G. Class I/IIb HDAC inhibition protects against systemic inflammation • (A) Time line of drug treatment and LPS priming and challenge. Mice were intraperitoneally injected, or not, with two doses of ricolinostat or GSK484 and were then intraperitoneally administered with two doses of LPS (−5 h, 1 mg/kg and 0 h, 2 mg/kg) to induce lethal sepsis. Peritoneal lavage and blood were collected 2 h after the LPS challenge. • (B) Body temperature was measured 2 h post challenge. • (C) Concentration of platelets in the blood was measured by cytofluorimetry. • (D) NETosis was measured as neutrophils (Ly6G+/CD11b+) positive for citrullinated histone H3 staining in the peritoneal lavage. • (E-G) Serum cytokines were measured by ELISA. […] Statistics were calculated using one-way ANOVA (*p<0.05; ** p<0.01; *** p<0.001; ****p<0.0001; n.s., not significant). n=15 for each group except the GSK484-treated group (n=10). Gray stars represent comparison of all experimental groups with the saline-treated healthy control. Black stars represent comparison of drug-treated groups with LPS-stimulated mice without drug treatment. Violin plots represent median (dashed line) with quartiles (dotted line). See also FIGS. 8A-F.
FIGS. 8A-F. Class I/IIb HDAC inhibition protects against systemic inflammation. • A-C) Neutrophils numbers and percentage were calculated in blood (A, B) and peritoneal lavage (C) of mice challenged, or not, with LPS. Saline group represent healthy mice. NT group represent mice that were challenged with LPS without receiving any drug. Ricolinostat (30 mg/kg/dose) or GSK484 (25 mg/kg/dose) were administered intraperitoneally at day −1, and 2 hour prior LPS priming. • D) Concentration of platelets in the blood was assessed by cytofluorimetry 2 hours post LPS-challenge. • E, F) Absolute amounts of serum cytokines were measured by ELISA. Violin plots represent median (dashed line) with quartiles (dotted line). Statistics were calculated using One-way ANOVA (*P<0.05; **P<0.01; ***P<0.001; ****P<0.0001; n.s., not significant). Grey stars represent comparison of all experimental groups with the saline control. Black stars represent comparison of drug treated groups with NT group.
Alternatively, neutrophils positive for citrullinated histone H3 were quantified by cytofluorimetry. Briefly, neutrophils from bronco-alveolar lavage fluid or peritoneal lavage fluid were stained for Ly6G, CD11b, CD45 and Zombie dye for 20 minutes at room temperature and then fixed with BD FACS Lysing Solution (cat #349202, BD Biosciences). Samples were washed twice with Intracellular Staining Permeabilization Wash buffer (cat #421002, Biolegend), incubated with anti-citrullinated histone H3 antibody (Abcam) 1 hour at room temperature and subsequently with PE anti-rabbit antibody for 30 minutes. Finally, samples were acquired with BD FACS Fortessa and neutrophils (CD45+/Ly6G+/CD11b+) positive for citrullinated histone H3 were quantified with FlowJo software.
8-week-old female mice were primed with 1 mg/kg of LPS intra peritoneum (i.p.) for 5 hours and then challenged with 2 mg/kg of LPS i.p. Ricolinostat was used at 30 mg/kg/dose, GSK484 at 25 mg/kg/dose and dexamethasone at 10 mg/kg/dose. Drugs were administered i.p. at day −1 and 2 hours prior priming. Blood samples were collected 2 hours post-challenge and cytokines were measured by ELISA. The platelet concentrations and neutrophils numbers in the blood and peritoneal cavity were calculated by cytofluorimetry using CountBright Absolute Cell Counting Beads (Thermo Scientific) according to the manufacturer's instructions. NETosis was measured as quantity of neutrophils in the peritoneal lavage positive for citrullinated histone H3 by cytofluorimetry.

| SMILES | platelet counts in the blood | pro-inflammatory cytokine production (serum, ELISA) | neutrophils levels (blood and peritoneal lavage) | release of NETs by neutrophils in the peritoneal lavage (CitH3-positive neutrophils) | body temperature 2 h post challenge | pro-inflammatory cytokine production (serum, ELISA), comparison with dexamethasone (dexamethasone 10 mg/kg/dose, ricolinostat 30 mg/kg/dose, FIGS. 8E and 8F) |
| --- | --- | --- | --- | --- | --- | --- |
| COc1cc(C(=O)N2CC[C@@H](O)[C@@H](N)C2)cc2nc(-c3cc4ccccc4n3CC3CC3)n(C)c12 [GSK484] | significantly higher | significantly decreased | increased neutrophils levels | reduced release of NETs | no temperature loss | – |
| O=C(CCCCCCNC(=O)c1cnc(N(c2ccccc2)c2ccccc2)nc1)NO [ricolinostat] | significantly higher | significantly decreased | increased neutrophils levels | reduced release of NETs | no temperature loss | efficiently reduced |
